# Target: human α7 nAchR (Homo sapiens (Human), UniProt P36544)
# Assay: Human α7 nicotinic acetylcholine receptor [Ca2+]i assay (PAM, Ca2+ fluorometry)
# Format: cell-based
# Settings: Flp-In 293 cells expressing human α7 nAchR and human RIC-3; in presence of saturating agonist (mostly PNU-282987, 1 μM)
# Procedure: Biological Activity Human α7 Nicotinic Acetylcholine Receptor [Ca^2+]i Assay
# Cells: Flp-In 293 cells stably expressing human α7 nAchR and human RIC-3 (α7 cells, generated in house.)
# Materials: 96-well plates coated with PDL (Falcon), culture medium, assay buffer, DMSO, FLIPR Calcium 5 kit (Molecular Devices), probenecid, agonist and PAM test compounds.
# Brief Description of the Method (Ca^2+ Fluorometry)
# α7 cells stably expressing human α7 nAchR were cultured in the medium detailed above, and were split twice a week. For the fluorometric measurements of cytosolic Ca^2+ ion concentration ([Ca^2+]i) cells were seeded in 96-well microplates at a density of 60000 cells/well and maintained overnight in a tissue culture incubator at 37° C. under an atmosphere of 95% air/5% CO2. The plating medium was identical with the culture medium. 50 μl of the growth medium was aspirated with a cell washer (BioTek Elx405UCVWS). Then 50 μl/well Calcium 5 kit diluted 2-fold in assay buffer was added manually using an 8-channel pipette. After an incubation period (20 minutes, 37° C.) 50 μl/well assay buffer containing vehicle (DMSO, 4% added) or reference α7 PAMs (4×of the final concentration) were added manually and the cells were incubated for an additional 10 minutes at 37° C. Baseline and agonist-evoked [Ca2+]i-changes were monitored with FlexStation II (Molecular Devices, Sunnyvale, Calif.), a plate reader fluorometer with integrated 8-channel fluid addition capability. Fluorescence measurements were carried out at 37° C. The dye was excited at 485 nm, emission was sampled at 525 nm at 1.4-s intervals. Baseline was recorded for 20 seconds followed by agonist stimulation. 50 μl 4× concentrated agonist solution was added to the cells using the pipettor of FlexStation II and fluorescence was monitored for an additional 40 seconds. Final DMSO concentration was 1% for all treatments. To achieve this, a series of DMSO stock solutions were prepared from all test compounds. These stocks were stored under 0° C. and were further diluted in assay buffer to obtain the desired final concentration immediately before the measurement. Agonist and PAM concentration-response studies were conducted in the presence of saturating concentrations of PAMs (mostly PNU-120596, 5 μM) and agonists (mostly PNU-282987, 1 μM), respectively. Results were expressed as ΔF/F values using SoftMax Pro software (Molecular Devices), where F was the resting fluorescence preceding agonist application and ΔF was the increase in fluorescence at a given time (ΔF=maximum fluorescence intensity values after stimulation minus average fluorescence intensity values before stimulation). In all experiments, all treatments were measured in multiple wells in parallel, and the mean ΔF/F values were used for analysis.
# human α7 nAchR, sequence (P36544 23-502): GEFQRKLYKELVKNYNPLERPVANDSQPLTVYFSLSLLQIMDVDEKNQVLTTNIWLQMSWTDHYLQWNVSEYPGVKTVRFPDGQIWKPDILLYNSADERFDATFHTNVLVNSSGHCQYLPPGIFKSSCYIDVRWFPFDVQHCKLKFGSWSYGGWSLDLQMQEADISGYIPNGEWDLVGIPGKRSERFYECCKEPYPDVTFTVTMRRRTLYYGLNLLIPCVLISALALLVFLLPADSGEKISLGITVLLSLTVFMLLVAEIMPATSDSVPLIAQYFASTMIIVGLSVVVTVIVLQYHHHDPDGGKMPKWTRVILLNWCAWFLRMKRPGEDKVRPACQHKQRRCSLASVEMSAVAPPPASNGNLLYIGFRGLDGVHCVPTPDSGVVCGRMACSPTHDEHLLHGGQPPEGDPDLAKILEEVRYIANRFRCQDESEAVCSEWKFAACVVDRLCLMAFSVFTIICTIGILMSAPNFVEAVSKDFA
row,EC50 [nM],Structure (SMILES)
1,350,CCN1C(C(=O)Nc2cccc(C(F)F)n2)=CC([C@H]2CC[C@H](C(F)(F)F)CC2)=NS1(=O)=O [Example 80]
2,55,C=CCN1C(C(=O)Nc2cccc(C(F)(F)F)n2)=CC(c2ccc(OC)c(OC)c2)=NS1(=O)=O [Example 107]
3,380,COc1ccc(C2=NS(=O)(=O)N(CC(F)(F)F)C(C(=O)Nc3cccc(C)c3)=C2)cc1OC [Example 119]
4,1300,COc1ccc(NC(=O)C2=CC(c3ccc(OC)c(OC)c3)=NS(=O)(=O)N2C(C)C)cc1 [Example 108]
5,400,COc1ccc(C2=NS(=O)(=O)N(C)C(C(=O)Nc3cccc(C(F)(F)F)c3)=C2)cc1C [Example 23]
6,1200,COc1ccc(C2=NS(=O)(=O)N(C(C)C)C(C(=O)Nc3cccc(Nc4cccc(F)n4)n3)=C2)cc1OC [Example 90]
7,220,C=CCN1C(C(=O)Nc2cccc(C(F)(F)F)c2)=CC(c2ccc(OC)c(OC)c2)=NS1(=O)=O [Example 121]
8,370,COc1ccc(C2=NS(=O)(=O)N(CC3CC3)C(C(=O)Nc3cccc(Cl)c3)=C2)cc1OC [Example 104]
9,960,CCN1C(C(=O)Nc2cccc(C(F)(F)F)n2)=CC(C2CC=CC2)=NS1(=O)=O [Example 75]
10,480,CN1C(C(=O)Nc2cccc(C(F)(F)F)n2)=CC([C@H]2CC[C@H](C(F)(F)F)CC2)=NS1(=O)=O [Example 54]
11,110,CCN1C(C(=O)Nc2ccc(OC)cc2)=CC(c2ccc(OC)c(C)c2)=NS1(=O)=O [Example 43]
12,140,CC(C)N1C(C(=O)Nc2cncc(F)n2)=CC([C@H]2CC[C@H](C(F)(F)F)CC2)=NS1(=O)=O [Example 138]
13,1800,COc1ccc(C2=NS(=O)(=O)N(C)C(C(=O)Nc3cccc(C#N)c3)=C2)cc1OC [Example 8]
14,530,COc1ccc(C2=NS(=O)(=O)N(CC(F)(F)F)C(C(=O)Nc3cccc(C(F)(F)F)c3)=C2)cc1OC [Example 118]
15,320,COc1ccc(C2=NS(=O)(=O)N(CC3CC3)C(C(=O)Nc3cccc(C(F)(F)F)c3)=C2)cc1OC [Example 102]
16,670,COc1cccc(NC(=O)C2=CC(c3ccc(OC)c(OC)c3)=NS(=O)(=O)N2C)c1 [Example 10]
17,1100,CCN1C(C(=O)Nc2cccc(C(F)(F)F)c2)=CC([C@H]2CC[C@H](C(F)(F)F)CC2)=NS1(=O)=O [Example 50]
18,150,CCCN1C(C(=O)Nc2cccc(C(F)(F)F)c2)=CC(c2ccc(OC)c(Cl)c2)=NS1(=O)=O [Example 100]
19,100,CCN1C(C(=O)Nc2ccc(C)cc2)=CC(c2ccc(OC)c(C(F)(F)F)c2)=NS1(=O)=O [Example 41]
20,140,CCN1C(C(=O)Nc2cccc(C(F)(F)F)n2)=CC([C@H]2CC3C[C@@H]3C2)=NS1(=O)=O (stereo partly drawn) [Example 71]

row,EC50 [nM],Structure (SMILES)
1,110,COc1ccc(C2=NS(=O)(=O)N(C)C(C(=O)Nc3cccc(C)c3)=C2)cc1Cl [Example 27]
2,980,COc1ccc(C2=NS(=O)(=O)N(C)C(C(=O)Nc3cccc(C(C)=O)c3)=C2)cc1OC [Example 4]
3,430,CCN1C(C(=O)Nc2cccc(C(F)(F)F)n2)=CC(C2CCCCCC2)=NS1(=O)=O [Example 66]
4,330,CCN1C(C(=O)Nc2ccnc(C(F)(F)F)n2)=CC([C@H]2CC[C@H](C(F)(F)F)CC2)=NS1(=O)=O [Example 64]
5,100,CCCN1C(C(=O)Nc2cccc(C(F)(F)F)c2)=CC(c2ccc(OC)c(C)c2)=NS1(=O)=O [Example 98]
6,500,CCN1C(C(=O)Nc2cccc(Cl)c2)=CC(c2ccc(OC)c(C)c2)=NS1(=O)=O [Example 47]
7,130,CCN1C(C(=O)Nc2ccc(C)c(C)c2)=CC(c2ccc(OC)c(OC)c2)=NS1(=O)=O [Example 34]
8,360,CCN1C(C(=O)Nc2cccc(C(F)(F)F)c2)=CC(c2ccc(OC)c(C)c2)=NS1(=O)=O [Example 44]
9,85,CCCN1C(C(=O)Nc2cccc(C(F)(F)F)c2)=CC(c2ccc(OC)c(C(F)(F)F)c2)=NS1(=O)=O [Example 115]
10,30,CCCN1C(C(=O)Nc2cccc(C(F)(F)F)n2)=CC(c2ccc(OC)c(C(F)(F)F)c2)=NS1(=O)=O [Example 97]
11,690,COc1ccc(C2=NS(=O)(=O)N(C)C(C(=O)Nc3ccc(C(C)=O)cc3)=C2)cc1OC [Example 3]
12,320,CCN1C(C(=O)Nc2ccnc(F)n2)=CC([C@H]2CC[C@H](C(F)(F)F)CC2)=NS1(=O)=O [Example 79]
13,3000,COc1ccc(C2=NS(=O)(=O)N(C)C(C(=O)Nc3ccnc(C)c3)=C2)cc1OC [Example 15]
14,340,COc1ccc(C2=NS(=O)(=O)N(C)C(C(=O)Nc3ccc(C)c(Cl)c3)=C2)cc1OC [Example 13]
15,940,COc1ccc(C2=NS(=O)(=O)N(C)C(C(=O)Nc3cccc(Cl)c3)=C2)cc1OC [Example 20]
16,45,CCN1C(C(=O)Nc2ccc(OC)cc2)=CC(c2ccc(OC)c(C(F)(F)F)c2)=NS1(=O)=O [Example 38]
17,290,COc1ccc(C2=NS(=O)(=O)N(C(C)C)C(C(=O)Nc3cccc(Cl)c3)=C2)cc1OC [Example 92]
18,120,O=C(Nc1cccc(F)n1)C1=CC(C2CCC(F)(F)CC2)=NS(=O)(=O)N1CC1CC1 [Example 135]
19,1400,COc1ccc(C2=NS(=O)(=O)N(C)C(C(=O)Nc3ccc4c(c3)CCN(C)C4=O)=C2)cc1OC [Example 2]
20,380,CCCN1C(C(=O)Nc2cccc(Cl)c2)=CC(c2ccc(OC)c(OC)c2)=NS1(=O)=O [Example 114]

row,EC50 [nM],Structure (SMILES)
1,370,Cc1cccc(NC(=O)C2=CC(c3ccc4c(cnn4C)c3)=NS(=O)(=O)N2C)c1 [Example 22]
2,65,CCCN1C(C(=O)Nc2cccc(C(F)(F)F)n2)=CC(c2ccc(OC)c(Cl)c2)=NS1(=O)=O [Example 101]
3,1400,COc1ccc(C2=NS(=O)(=O)N(C)C(C(=O)Nc3cc(Cl)ccc3OC)=C2)cc1Cl [Example 25]
4,2800,CCN1C(C(=O)Nc2cc(Cl)ccn2)=CC([C@H]2CC[C@H](C(F)(F)F)CC2)=NS1(=O)=O [Example 62]
5,2000,"CCCn1ccc(NC(=O)C2=CC(c3ccc(OC)c(OC)c3)=NS(=O)(=O)N2C)n1 [Example 85, 5-(3,4-dimethoxyphenyl)-2-methyl-1,1-dioxo-N-(1-propyl-1H-pyrazol-3-yl)-2H-1λ^6,2,6-thiadiazine-3-carboxamide]"
6,120,CC[C@H](C)N1C(C(=O)Nc2cccc(C(F)(F)F)n2)=CC(c2ccc(OC)c(OC)c2)=NS1(=O)=O [Example 82]
7,1400,COc1ccc(C2=NS(=O)(=O)N(C)C(C(=O)Nc3cccc(C)n3)=C2)cc1OC [Example 16]
8,150,CCN1C(C(=O)Nc2ccc(Cl)c(OC)c2)=CC(c2ccc(OC)c(OC)c2)=NS1(=O)=O [Example 35]
9,2800,COc1ccc(C2=NS(=O)(=O)N(C)C(C(=O)Nc3ccc(C)cn3)=C2)cc1OC [Example 17]
10,200,CCCCN1C(C(=O)Nc2cccc(C(F)(F)F)c2)=CC(c2ccc(OC)c(OC)c2)=NS1(=O)=O [Example 111]
11,120,C=CCN1C(C(=O)Nc2ccc(OC)cc2)=CC(c2ccc(OC)c(OC)c2)=NS1(=O)=O [Example 120]
12,150,CC(C)N1C(C(=O)Nc2ccnc(C(F)(F)F)n2)=CC([C@H]2CC[C@H](C(F)(F)F)CC2)=NS1(=O)=O [Example 136]
13,130,O=C(Nc1ccnc(C(F)(F)F)n1)C1=CC([C@H]2CC[C@H](C(F)(F)F)CC2)=NS(=O)(=O)N1CC1CC1 [Example 137]
14,150,O=C(Nc1cncc(F)n1)C1=CC([C@H]2CC[C@H](C(F)(F)F)CC2)=NS(=O)(=O)N1CC1CC1 [Example 139]
15,45,CC(C)N1C(C(=O)Nc2cccc(F)n2)=CC([C@H]2CC[C@H](C(F)(F)F)CC2)=NS1(=O)=O [Example 125]
16,120,CC(C)N1C(C(=O)Nc2cccc(C(F)(F)F)n2)=CC([C@H]2CC[C@H](C(F)(F)F)CC2)=NS1(=O)=O [Example 93]
17,620,CCN1C(C(=O)Nc2cccc(F)n2)=CC(C2CCC(F)(F)CC2)=NS1(=O)=O [Example 70]
18,1200,COc1cc(C2=NS(=O)(=O)N(C)C(C(=O)Nc3cccc(C)c3)=C2)ccc1Cl [Example 28]
19,100,COc1ccc(NC(=O)C2=CC(c3ccc(OC)c(OC)c3)=NS(=O)(=O)N2CC2CC2)cc1 [Example 116]
20,220,CCN1C(C(=O)Nc2cccc(C(F)(F)F)n2)=CC([C@H]2CC[C@H](C)CC2)=NS1(=O)=O [Example 67]

# — patent US12194050B2, “Thiadiazine derivatives” (RICHTER GEDEON NYRT., priority 2018, dated 2025)
